CNCCCc1c(C(=O)O)[nH]c2ccc(C(N)=O)cc12 [Example 13, 5-carboxamide-3-(3-methylaminopropyl)-1H-indole-2-carboxylic acid]
melting point: 266 to 268 °C (dec.)
